# Reference: article PMC8002983, “Mammalian Arginase Inhibitory Activity of Methanolic Extracts and Isolated Compounds from Cyperus Species” (Molecules, 2021)
# Molecular target: T1, purified liver bovine arginase (b-ARGI) (Bos taurus, UniProt Q2KJ64)
# T1 construct: purified liver bovine arginase 1, which was purchased from MP Biomedicals; purchased MP Biomedicals (Illkirch-Graffenstaden, France); host or cells: bovine liver (tissue-purified)
# T1 sequence (Q2KJ64 1-322): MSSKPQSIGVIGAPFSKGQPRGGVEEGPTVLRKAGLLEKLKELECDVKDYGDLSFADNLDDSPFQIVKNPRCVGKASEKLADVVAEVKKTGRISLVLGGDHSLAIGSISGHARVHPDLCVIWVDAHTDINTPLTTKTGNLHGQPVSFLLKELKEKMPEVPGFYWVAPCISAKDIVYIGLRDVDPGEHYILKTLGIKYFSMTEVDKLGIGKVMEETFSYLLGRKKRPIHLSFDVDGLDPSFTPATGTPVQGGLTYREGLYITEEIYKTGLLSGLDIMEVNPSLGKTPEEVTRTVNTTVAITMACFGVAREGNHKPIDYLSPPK
# Assay: in vitro arginase inhibitory assay (colorimetric urea detection)
# Assay type: biochemical
# Conditions: means ± SEM, three distinct experiments in triplicate, read-out: Arginase Inhibition, IC50
# Procedure: The amount of urea produced by the hydrolysis of L-arginine by arginase (purified liver bovine arginase (b-ARGI)) can be detected using a color reactant (α-isonitrosopropiophenone) followed by a colorimetric assay, as described below. In each well of a 96-well microplate, the solutions were added in the following order: (1) buffer containing Tris-HCl (50 mM, pH 7.5) and 0.1% of bovine serum albumin (TBSA buffer) (10 μL), with or without (control) arginase (0.025 U/μL); (2) Tris-HCl solution (50 mM, pH 7.5) containing 10 mM MnCl2 as a cofactor (30 μL); (3) a solution containing an inhibitor or its solvent (as a control) (10 μL); (4) a solution of L-arginine (pH 9.7, 0.05 M) (20 μL). The microplate was incubated for 60 min in a 37 °C water bath after covering with a plastic sealing film. The addition of 120 μL of H2SO4/H3PO4/H2O (1:3:7) quenched the reaction. The microplate was left on ice for 5 min. Thereafter, 10 μL of α-isonitrosopropiophenone (5% in absolute ethanol (EtOH)) was added, and the microplate was heated in an oven at 100 °C for 45 min, after covering with an aluminum sealing film. As the colored product is photosensitive, the microplate was kept in the dark until reading. After 5 min of centrifugation and cooling for another 10 min, the microplate was shaken for 2 min and the absorbance was read at 550 nm and 25 °C using a spectrophotometer (Synergy HT BioTeck). The level of arginase activity was expressed as relative to the “100% arginase activity”. The experiment was repeated three times with each microplate under similar experimental conditions (e.g., various inhibitor concentrations.)
# The percentage of arginase inhibitory activity and IC50 values was evaluated as previously described. A stock solution (70 mM) was prepared in DMSO and stored at −26 °C for each compound. These stock solutions were extemporaneously and successively diluted in ultrapure H2O to afford the following concentrations: 7000, 2100, 700, 210, 70, 21, 7, 2.1, and 0.7 μM, corresponding to final concentrations in the wells of 1000, 300, 100, 30, 10, 3, 1, 0.3, 0.1 μM, respectively. For a first screening, compounds were tested at final concentrations of 10 and 100 μM. Each solution was incubated with arginase for 1 h, as described above. The percentage of arginase inhibition was calculated by conversion of the resulting absorbance (relative to the absorbance of controls with only solvent (“100% arginase activity”)) and plotted on a semilogarithmic scale. The IC50 values were estimated by nonlinear sigmoidal curve-fitting by using Prism (GraphPad Software, version 5.0.3).
row,SMILES,IC50 [µM]
1,"Oc1ccc(/C=C/c2cc(O)cc3c2[C@H](c2cc(O)cc(O)c2)[C@@H](c2ccc(O)c(O)c2)O3)cc1 (stereo in doubt) [Compound 4, trans-scirpusin A]",17.6 ± 2.2
2,"COc1cc2c3c(c1)O[C@H](C)CC3(C)c1cc3oc(OC)ccc-3c1O2 (stereo partly drawn) [Compound 2, thunbergin B]",74.1 ± 3.7
3,"O=c1cc(-c2ccc(O)c(O)c2)oc2cc(O)cc(O)c12 [Compound 7, luteolin]",60.6 ± 3.1
4,"Oc1ccc(/C=C/c2cc(O)cc(O)c2)cc1 [Compound 3, trans-resveratrol]",105 ± 4.1
5,"COc1cc2c3c(cc(O)cc3c1)C(C)(C)c1c-2ccc(OC)c1O [Compound 1, 4,6-dihydroxy-12-dimethyl-3,10-dimethoxybenzophenanthrene]",28.8 ± 2.5
6,"O=C1/C(=C/c2ccc(O)c(O)c2)Oc2cc(O)cc(O)c21 [Compound 5, aureusidin]",57.1 ± 2.3
7,"Oc1cc(O)cc(-c2c(-c3ccc(O)c(O)c3)oc3cc4oc(-c5ccc(O)c(O)c5)c(-c5cc(O)cc(O)c5)c4c(/C=C/c4ccccc4)c23)c1 [Compound 6, trans-cyperusphenol A]",19.4 ± 1.3

# Molecular target: T1, purified liver bovine arginase (b-ARGI)
# Assay: not given
# Parameters: method as in PMID 27776374, PMID 28837342
# Conditions: mammalian arginase; read-out: Arginase inhibition IC50 of natural inhibitor piceatannol; cited from earlier work
row,SMILES,IC50 [µM]
1,Oc1cc(O)cc(/C=C/c2ccc(O)c(O)c2)c1 [piceatannol],12.6

# Tested on: aortic rings from adjuvant induced-arthritis rats
# Assay: ex vivo acetylcholine-induced relaxation in isolated aortic rings from arthritic rats
# Parameters: species or system rat
# Conditions: day 33 post-immunization, phenylephrine 10^−6 mol/L preconstriction, nor-NOHA 10^−4 mol/L, extract 2.6 10^−3 mg/mL
# Procedure: This part of the experiment was performed on 15 male Lewis rats (6 weeks old), purchased from JanvierLabs (Le Genest Saint Isle, France). The experimental procedures were approved by the local ethics committee for animal experimentation No. 2015/001-CD/5PR of Franche-Comté University (Besançon, France) and complied with the “Animal Research: Reporting In Vivo Experiments” (ARRIVE) guidelines.
# Arthritis was induced by a single intradermal injection to the tail of 120 μL of 10 mg·ml^−1 heat-killed Mycobacterium butyricum suspended in Freund’s incomplete adjuvant, as described previously. Non-arthritic age-matched rats were used as controls and received saline at the base of the tail.
# At 33 days post-immunization, corresponding to the acute phase of arthritis, the rats were anesthetized using sodium pentobarbital 60 mg/kg (Ceva Santé Animale, France). The descending thoracic aorta was excised and carefully cleaned for vascular study as previously described. […] To assess the effect of arginase inhibitors, experiments were repeated in the presence of nor-NOHA (10^−4 M) and C. thunbergii extract (at EC50 obtained by in vitro test), respectively.
row,SMILES,effect on depressed Ach-induced endothelium-dependent relaxation (endothelial dysfunction)
1,"N=C(NO)NCC[C@H](N)C(=O)O [nor-NOHA, Nω-hydroxy-nor-L-arginine]",relaxation was higher
